# Assay results taken from paper PMC8291583, “Design, synthesis, and evaluation of 3,7-substituted coumarin derivatives as multifunctional Alzheimer’s disease agents” (Journal of Enzyme Inhibition and Medicinal Chemistry, 2021).
# Several values for one entry are separate records, joined by “and”; a condition that tells them apart may be missing. Identical values can stand only once. Like-named read-outs stand apart in the source and are kept apart here.
# Experiments:
# BuChE from equine serum = target: T1, BuChE from equine serum (Equus caballus, UniProt P81908); assay: biochemical
# T1 construct: 12 U/ml BuChE from equine serum; from tissue; host or cells: equine serum
# T1 sequence (P81908 whole entry): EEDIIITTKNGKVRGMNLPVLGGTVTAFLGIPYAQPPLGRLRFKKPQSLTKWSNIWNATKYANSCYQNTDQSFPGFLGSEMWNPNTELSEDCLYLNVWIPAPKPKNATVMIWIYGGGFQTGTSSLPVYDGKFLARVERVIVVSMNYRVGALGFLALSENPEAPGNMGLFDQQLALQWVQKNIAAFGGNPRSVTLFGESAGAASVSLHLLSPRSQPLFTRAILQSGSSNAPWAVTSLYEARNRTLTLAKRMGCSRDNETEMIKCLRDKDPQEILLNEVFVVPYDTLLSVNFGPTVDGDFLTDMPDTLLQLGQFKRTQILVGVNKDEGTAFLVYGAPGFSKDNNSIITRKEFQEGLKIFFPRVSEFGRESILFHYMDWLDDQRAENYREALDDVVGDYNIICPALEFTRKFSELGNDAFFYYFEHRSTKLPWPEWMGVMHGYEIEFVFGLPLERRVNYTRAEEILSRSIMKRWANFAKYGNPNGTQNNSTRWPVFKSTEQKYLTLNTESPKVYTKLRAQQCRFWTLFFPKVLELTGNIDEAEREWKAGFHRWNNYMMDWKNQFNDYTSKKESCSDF
# Method: (§1) Cholinesterase activity is determined using a modified colorimetric method first described by Ellman[40]. […] The stock was then further diluted by factors of ten to produce solutions of 1 mM, 100 µM, 10 µM, 1 µM, and 0.1 µM which corresponds to concentrations of 100 µM, 10 µM, 1 µM, 0.1 µM, and 0.01 µM in the final reaction mixture. The test concentrations were stored in the refrigerator until the day of the assay. Trisma HCl buffer (50 mM, adjusted to pH 8 with 2 N NaOH) was prepared as the buffer and used to prepare enzyme stock solution (22 U/ml for Electrophorus electricus AChE and 12 U/ml BuChE from equine serum), 15 mM acetylthiocholine iodide, 15 mM S-butyrylthiocholine iodide and 1.5 mM DTNB (Ellman’s reagent). The enzyme stock solution was stabilised with 1% bovine serum albumin and stored in aliquots at −80 °C. A clear, flat bottom 96 well plate was used to perform the experiments with each concentration performed in triplicate. Prior to the assay the background absorbance for each compound at the different test concentrations was measured and accounted for when reading the final absorbance. […] Following this, 30 µl of the substrate was added to each well simultaneously using a multi pipette. […] A one-sample t-test was performed on the data to test for statistical significance.
# [1] = target: Electrophorus electricus AChE (Electrophorus electricus, UniProt O42275); assay: biochemical; details: for IC50: 25 °C, pH 8
# Sequence of Electrophorus electricus AChE (O42275 24-633): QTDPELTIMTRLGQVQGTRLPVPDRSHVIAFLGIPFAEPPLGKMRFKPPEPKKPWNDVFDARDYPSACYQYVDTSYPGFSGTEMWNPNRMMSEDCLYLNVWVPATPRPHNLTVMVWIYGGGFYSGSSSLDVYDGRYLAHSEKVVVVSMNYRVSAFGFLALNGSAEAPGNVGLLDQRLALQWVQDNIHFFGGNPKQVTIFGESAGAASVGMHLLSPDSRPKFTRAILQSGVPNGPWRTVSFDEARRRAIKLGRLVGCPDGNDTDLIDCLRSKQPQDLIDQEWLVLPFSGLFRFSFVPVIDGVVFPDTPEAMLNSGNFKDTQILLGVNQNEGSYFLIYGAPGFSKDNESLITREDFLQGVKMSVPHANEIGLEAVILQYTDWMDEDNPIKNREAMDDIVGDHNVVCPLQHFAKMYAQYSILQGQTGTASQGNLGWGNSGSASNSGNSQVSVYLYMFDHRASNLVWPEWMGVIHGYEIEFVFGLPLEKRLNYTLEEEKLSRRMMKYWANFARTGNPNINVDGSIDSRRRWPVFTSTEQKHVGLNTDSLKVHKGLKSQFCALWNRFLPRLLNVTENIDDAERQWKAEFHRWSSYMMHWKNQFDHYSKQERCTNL
# Method: as §1
# recombinant human MAO-B = recombinant human MAO-B (Homo sapiens, UniProt P27338); assay: MAO-B fluorometric assay (kynuramine); type: biochemical; details: for IC50: kynuramine 30 µM, 37 °C, read-out: MAO-B IC50
# Sequence of recombinant human MAO-B (P27338 whole entry): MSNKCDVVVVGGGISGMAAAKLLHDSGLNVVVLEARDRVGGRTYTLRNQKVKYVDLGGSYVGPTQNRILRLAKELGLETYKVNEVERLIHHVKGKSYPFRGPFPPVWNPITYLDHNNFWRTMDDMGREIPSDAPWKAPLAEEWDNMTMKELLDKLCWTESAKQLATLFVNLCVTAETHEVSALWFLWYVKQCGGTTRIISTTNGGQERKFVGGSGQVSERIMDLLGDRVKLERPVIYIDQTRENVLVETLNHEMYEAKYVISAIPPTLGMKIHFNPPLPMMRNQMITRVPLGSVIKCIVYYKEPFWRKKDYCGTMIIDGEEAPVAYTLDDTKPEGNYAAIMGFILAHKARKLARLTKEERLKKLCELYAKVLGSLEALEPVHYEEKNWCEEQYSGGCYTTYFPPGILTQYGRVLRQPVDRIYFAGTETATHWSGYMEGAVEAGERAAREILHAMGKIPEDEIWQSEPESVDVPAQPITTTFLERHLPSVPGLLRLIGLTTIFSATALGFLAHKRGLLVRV
# Method: . The stock was then further diluted by factors of ten to produce solutions of 1 mM, 100 µM, 10 µM, 1 µM, and 0.1 µM which would correspond to concentrations of 100 µM, 10 µM, 1 µM, 0.1 µM, and 0.01 µM in the final reaction mixture. A potassium phosphate buffer ([…] 100 mM, pH 7.4, 0.9% w/v NaCl) was prepared and refrigerated until further use. The enzyme stock solutions were prepared by dissolving 2.5 mg of enzyme in 33.33 ml of phosphate buffer to produce stock solutions of 0.075 mg/ml which were stored in aliquots at −80 °C until use. […]. The substrate was prepared by dissolving kynuramine in potassium buffer and was prepared as two separate concentrations; […]. The fresh substrate was prepared on the day of the assay. The assay was carried out in 2 ml Eppendorf vials. […] Following this, 25 µl of the enzyme stock were added to each vial in 10 s intervals and the vials were incubated at 37 °C for 10 min. After this time period 15 µl of kynuramine (750 µM for MAO-A and 500 µM for MAO-B) was added at 10 s intervals and further incubated for 20 min. To stop the reaction at the end of this time 150 hx00B5;l of 2 N NaOH was added and the mixture was shaken. Using a micropipette 80 hx00B5;l of the mixture was transferred to a well in a black 96 well plate. The plate was placed in the fluorescent plate reader and read at an excitation/emission wavelength of 310 nm/410 nm. Each assay was run in triplicate and the data were analysed with Graph Pad Prism 8 software (San Diego, USA).
# The MAO inhibitory activity of the compounds was assessed using a fluorometric assay with recombinant human MAO-A and human MAO-B enzymes. […].
# recombinant human MAO-A = target: T2, recombinant human MAO-A (Homo sapiens, UniProt P21397); assay: biochemical; details: 37 °C
# T2 sequence (P21397 1-527): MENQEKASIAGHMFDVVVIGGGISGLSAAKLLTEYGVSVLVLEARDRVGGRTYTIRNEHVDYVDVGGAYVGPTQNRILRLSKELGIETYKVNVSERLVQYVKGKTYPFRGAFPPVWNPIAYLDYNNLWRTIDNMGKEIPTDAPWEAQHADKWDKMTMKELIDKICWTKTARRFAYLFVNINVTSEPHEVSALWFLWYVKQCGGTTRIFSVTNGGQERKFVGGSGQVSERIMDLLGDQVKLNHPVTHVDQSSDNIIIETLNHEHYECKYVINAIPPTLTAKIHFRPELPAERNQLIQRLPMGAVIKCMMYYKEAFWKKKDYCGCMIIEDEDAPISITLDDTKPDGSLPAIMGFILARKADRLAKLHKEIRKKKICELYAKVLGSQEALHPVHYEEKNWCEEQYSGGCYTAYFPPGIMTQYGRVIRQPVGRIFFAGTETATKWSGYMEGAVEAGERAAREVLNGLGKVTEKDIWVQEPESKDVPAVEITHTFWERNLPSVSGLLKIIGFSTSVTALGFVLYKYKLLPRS
# Method: The stock was then further diluted by factors of ten to produce solutions of 1 mM, 100 µM, 10 µM, 1 µM, and 0.1 µM which would correspond to concentrations of 100 µM, 10 µM, 1 µM, 0.1 µM, and 0.01 µM in the final reaction mixture. A potassium phosphate buffer ([…] 100 mM, pH 7.4, 0.9% w/v NaCl) was prepared and refrigerated until further use. The enzyme stock solutions were prepared by dissolving 2.5 mg of enzyme in 33.33 ml of phosphate buffer to produce stock solutions of 0.075 mg/ml which were stored in aliquots at −80 °C until use. Once in the final reaction mixture, this enzyme solution will have a concentration of 0.0075 mg/ml. […] The fresh substrate was prepared on the day of the assay. The assay was carried out in 2 ml Eppendorf vials. […] Following this, 25 µl of the enzyme stock were added to each vial in 10 s intervals and the vials were incubated at 37 °C for 10 min. […] To stop the reaction at the end of this time 150 hx00B5;l of 2 N NaOH was added and the mixture was shaken. Using a micropipette 80 hx00B5;l of the mixture was transferred to a well in a black 96 well plate. The plate was placed in the fluorescent plate reader and read at an excitation/emission wavelength of 310 nm/410 nm. Each assay was run in triplicate and the data were analysed with Graph Pad Prism 8 software (San Diego, USA).
# The MAO inhibitory activity of the compounds was assessed using a fluorometric assay with recombinant human MAO-A and human MAO-B enzymes.
# [2] = Ellman method, 25 °C, pH 8, read-out: BuChE IC50
# [3] = Ellman method, read-out: AChE IC50
# [4] = kynuramine 45 µM, read-out: MAO-A IC50
Structure (SMILES),IC50 (BuChE from equine serum; [2]),"IC50 [1, 3]",IC50 (recombinant human MAO-B),IC50 (recombinant human MAO-A; [4]),"inhibition at 100 µM ([1]; at 100 µM, read-out: AChE enzyme inhibition)",SI MAO-B (MAO-B selectivity index = IC50(MAO-A)/IC50(MAO-B)) (recombinant human MAO-B),IC50 (BuChE from equine serum),"IC50 ([1]; AChE IC50, Ellman method)","IC50 (recombinant human MAO-A; MAO-A IC50, kynuramine 45 µM)"
"O=c1oc2cc(OCCc3ccccc3)ccc2cc1CBr [Compound 4, 3-(bromomethyl)-7-(2-phenylethoxy)-2H-1-benzopyran-2-one]",> 100 µM,> 100 µM,> 100 µM,0.48 µM and 0.476 µM,–,–,–,–,–
"CCN(CC)C(=O)Oc1ccc2cc(CBr)c(=O)oc2c1 [Compound 5, 3-(bromomethyl)-2-oxo-2H-1-benzopyran-7-yl-diethylcarbamate]",23.3 µM,~108 µM and 108 µM,0.333 µM,0.36 µM and 0.355 µM,49%,1.05,–,–,–
"C#CCNCc1cc2ccc(OC(=O)N(CC)CC)cc2oc1=O [Compound 7, 2-oxo-3-{[(prop-2-yn-1-yl)amino]methyl}-2H-1-benzopyran-7-yl-diethylcarbamate]",–,–,0.101 µM,–,–,205.9,> 100 µM,> 100 µM,20.8 µM
"C#CCNCc1cc2ccc(OCCc3ccccc3)cc2oc1=O [Compound 6, 7-(2-phenylethoxy)-3-{[(prop-2-yn-1-yl)amino]methyl}-2H-1-benzopyran-2-one]",> 100 µM,> 100 µM,0.029 µM,3.86 µM,–,133.2,–,–,–
